Measurements: PubChem BioAssay (NCI)
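Test compounds were applied to cells in 96-well plates for 48 hours at 5 doses. TGI is the concentration that stops growth completely.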

What was measured:
Experiment in all cases: NCI-60 cell line screen, 48 h
786-0 renal = tested on: 786-0 renal
A498 renal = tested on: A498 renal
A549 NSCLC = tested on: A549 NSCLC
ACHN renal = tested on: ACHN renal
CAKI-1 renal = tested on: CAKI-1 renal
CCRF-CEM leukemia = tested on: CCRF-CEM leukemia
COLO 205 colon = tested on: COLO 205 colon
DLD-1 colon = tested on: DLD-1 colon
DMS 114 small cell lung = tested on: DMS 114 small cell lung
DMS 273 small cell lung = tested on: DMS 273 small cell lung
EKVX NSCLC = tested on: EKVX NSCLC
HCC-2998 colon = tested on: HCC-2998 colon
HCT-116 colon = tested on: HCT-116 colon
HL-60(TB) leukemia = tested on: HL-60(TB) leukemia
HOP-62 NSCLC = tested on: HOP-62 NSCLC
HT29 colon = tested on: HT29 colon
IGROV1 ovarian = tested on: IGROV1 ovarian
K-562 leukemia = tested on: K-562 leukemia
KM12 colon = tested on: KM12 colon
KM20L2 colon = tested on: KM20L2 colon
LOX IMVI melanoma = tested on: LOX IMVI melanoma
LXFL 529 NSCLC = tested on: LXFL 529 NSCLC
M14 melanoma = tested on: M14 melanoma
M19-MEL melanoma = tested on: M19-MEL melanoma
MALME-3M melanoma = tested on: MALME-3M melanoma
MOLT-4 leukemia = tested on: MOLT-4 leukemia
NCI-H226 lung = tested on: NCI-H226 lung
NCI-H23 lung = tested on: NCI-H23 lung
NCI-H460 lung = tested on: NCI-H460 lung
NCI-H522 lung = tested on: NCI-H522 lung
OVCAR-3 ovarian = tested on: OVCAR-3 ovarian
OVCAR-4 ovarian = tested on: OVCAR-4 ovarian
OVCAR-5 ovarian = tested on: OVCAR-5 ovarian
OVCAR-8 ovarian = tested on: OVCAR-8 ovarian
RPMI-8226 leukemia = tested on: RPMI-8226 leukemia
RXF-631 renal = tested on: RXF-631 renal
SF-268 CNS = tested on: SF-268 CNS
SF-295 CNS = tested on: SF-295 CNS
SF-539 CNS = tested on: SF-539 CNS
SK-MEL-2 melanoma = tested on: SK-MEL-2 melanoma
SK-MEL-28 melanoma = tested on: SK-MEL-28 melanoma
SK-MEL-5 melanoma = tested on: SK-MEL-5 melanoma
SK-OV-3 ovarian = tested on: SK-OV-3 ovarian
SN12C renal = tested on: SN12C renal
SNB-19 CNS = tested on: SNB-19 CNS
SNB-75 CNS = tested on: SNB-75 CNS
SNB-78 CNS = tested on: SNB-78 CNS
SW-620 colon = tested on: SW-620 colon
TK-10 renal = tested on: TK-10 renal
U251 CNS = tested on: U251 CNS
UACC-257 melanoma = tested on: UACC-257 melanoma
UACC-62 melanoma = tested on: UACC-62 melanoma
UO-31 renal = tested on: UO-31 renal
XF 498 CNS = tested on: XF 498 CNS
BT-549 breast = tested on: BT-549 breast
DU-145 prostate = tested on: DU-145 prostate
HCT-15 colon = tested on: HCT-15 colon
HOP-18 NSCLC = tested on: HOP-18 NSCLC
HOP-92 NSCLC = tested on: HOP-92 NSCLC
HS 578T breast = tested on: HS 578T breast
MCF7 breast = tested on: MCF7 breast
MDA-MB-231 breast = tested on: MDA-MB-231 breast
MDA-MB-435 = tested on: MDA-MB-435
MDA-N = tested on: MDA-N
NCI/ADR-RES ovarian = tested on: NCI/ADR-RES ovarian
PC-3 prostate = tested on: PC-3 prostate
RXF 393 renal = tested on: RXF 393 renal
SR leukemia = tested on: SR leukemia

Structure (SMILES): CN(C(=O)C12C3C4C1C1C2C3C41C(O)C(C)(C)C)C(C)(C)C (stereo unspecified)
- TGI (786-0 renal): > 100 µM
- TGI (A498 renal): > 100 µM
- TGI (A549 NSCLC): > 100 µM
- TGI (ACHN renal): > 100 µM
- TGI (CAKI-1 renal): > 100 µM
- TGI (CCRF-CEM leukemia): > 100 µM
- TGI (COLO 205 colon): > 100 µM
- TGI (DLD-1 colon): > 100 µM
- TGI (DMS 114 small cell lung): > 100 µM
- TGI (DMS 273 small cell lung): > 100 µM
- TGI (EKVX NSCLC): > 100 µM
- TGI (HCC-2998 colon): > 100 µM
- TGI (HCT-116 colon): > 100 µM
- TGI (HL-60(TB) leukemia): > 100 µM
- TGI (HOP-62 NSCLC): > 100 µM
- TGI (HT29 colon): > 100 µM
- TGI (IGROV1 ovarian): > 100 µM
- TGI (K-562 leukemia): > 100 µM
- TGI (KM12 colon): > 100 µM
- TGI (KM20L2 colon): > 100 µM
- TGI (LOX IMVI melanoma): > 100 µM
- TGI (LXFL 529 NSCLC): > 100 µM
- TGI (M14 melanoma): > 100 µM
- TGI (M19-MEL melanoma): > 100 µM
- TGI (MALME-3M melanoma): > 100 µM
- TGI (MOLT-4 leukemia): > 100 µM
- TGI (NCI-H226 lung): > 100 µM
- TGI (NCI-H23 lung): > 100 µM
- TGI (NCI-H460 lung): > 100 µM
- TGI (NCI-H522 lung): > 100 µM
- TGI (OVCAR-3 ovarian): > 100 µM
- TGI (OVCAR-4 ovarian): > 100 µM
- TGI (OVCAR-5 ovarian): > 100 µM
- TGI (OVCAR-8 ovarian): > 100 µM
- TGI (RPMI-8226 leukemia): > 100 µM
- TGI (RXF-631 renal): > 100 µM
- TGI (SF-268 CNS): > 100 µM
- TGI (SF-295 CNS): > 100 µM
- TGI (SF-539 CNS): > 100 µM
- TGI (SK-MEL-2 melanoma): > 100 µM
- TGI (SK-MEL-28 melanoma): > 100 µM
- TGI (SK-MEL-5 melanoma): > 100 µM
- TGI (SK-OV-3 ovarian): > 100 µM
- TGI (SN12C renal): > 100 µM
- TGI (SNB-19 CNS): > 100 µM
- TGI (SNB-75 CNS): > 100 µM
- TGI (SNB-78 CNS): > 100 µM
- TGI (SW-620 colon): > 100 µM
- TGI (TK-10 renal): > 100 µM
- TGI (U251 CNS): > 100 µM
- TGI (UACC-257 melanoma): > 100 µM
- TGI (UACC-62 melanoma): > 100 µM
- TGI (UO-31 renal): > 100 µM
- TGI (XF 498 CNS): > 100 µM

Structure (SMILES): CCCCCCCCCCCCCCCC(=O)OCC1OC(OC)C(NC(=O)N(CCCl)N=O)C(O)C1O (stereo unspecified)
- TGI (786-0 renal): 14.9 µM
- TGI (A498 renal): 61.3 µM
- TGI (A549 NSCLC): 35.2 µM
- TGI (ACHN renal): 57.2 µM
- TGI (BT-549 breast): 99.4 µM
- TGI (CAKI-1 renal): 45.4 µM
- TGI (CCRF-CEM leukemia): 53.7 µM
- TGI (COLO 205 colon): 47.4 µM
- TGI (DLD-1 colon): 37.9 µM
- TGI (DMS 114 small cell lung): 46.4 µM
- TGI (DMS 273 small cell lung): 25.2 µM
- TGI (DU-145 prostate): 92.6 µM
- TGI (EKVX NSCLC): > 87.5 µM
- TGI (HCC-2998 colon): 48.2 µM
- TGI (HCT-116 colon): 26.8 µM
- TGI (HCT-15 colon): 35.4 µM
- TGI (HL-60(TB) leukemia): 28.3 µM
- TGI (HOP-18 NSCLC): > 100 µM
- TGI (HOP-62 NSCLC): 31.9 µM
- TGI (HOP-92 NSCLC): 47.8 µM
- TGI (HS 578T breast): 63.9 µM
- TGI (HT29 colon): 33.7 µM
- TGI (IGROV1 ovarian): 54 µM
- TGI (K-562 leukemia): 62.1 µM
- TGI (KM12 colon): 56.2 µM
- TGI (KM20L2 colon): 58.4 µM
- TGI (LOX IMVI melanoma): 17.5 µM
- TGI (LXFL 529 NSCLC): 37.4 µM
- TGI (M14 melanoma): 36.4 µM
- TGI (M19-MEL melanoma): > 89.6 µM
- TGI (MALME-3M melanoma): 59 µM
- TGI (MCF7 breast): > 100 µM
- TGI (MDA-MB-231 breast): 35.5 µM
- TGI (MDA-MB-435): 31.3 µM
- TGI (MDA-N): 32 µM
- TGI (MOLT-4 leukemia): 29.2 µM
- TGI (NCI-H226 lung): 39.7 µM
- TGI (NCI-H23 lung): 32 µM
- TGI (NCI-H460 lung): 23.1 µM
- TGI (NCI-H522 lung): 34.7 µM
- TGI (NCI/ADR-RES ovarian): 58.9 µM
- TGI (OVCAR-3 ovarian): 48.6 µM
- TGI (OVCAR-4 ovarian): 53.4 µM
- TGI (OVCAR-5 ovarian): > 74 µM
- TGI (OVCAR-8 ovarian): 45.3 µM
- TGI (PC-3 prostate): 51.7 µM
- TGI (RPMI-8226 leukemia): 61.6 µM
- TGI (RXF 393 renal): 32.7 µM
- TGI (SF-268 CNS): 37.4 µM
- TGI (SF-295 CNS): 24.7 µM
- TGI (SF-539 CNS): 15.3 µM
- TGI (SK-MEL-2 melanoma): 36.8 µM
- TGI (SK-MEL-28 melanoma): > 85.4 µM
- TGI (SK-MEL-5 melanoma): 59.9 µM
- TGI (SK-OV-3 ovarian): 63 µM
- TGI (SN12C renal): 39.3 µM
- TGI (SNB-19 CNS): > 67.2 µM
- TGI (SNB-75 CNS): 38.5 µM
- TGI (SNB-78 CNS): > 85.5 µM
- TGI (SR leukemia): > 60.9 µM
- TGI (SW-620 colon): 28.5 µM
- TGI (TK-10 renal): 63.2 µM
- TGI (U251 CNS): 27 µM
- TGI (UACC-257 melanoma): 47.8 µM
- TGI (UACC-62 melanoma): 15 µM
- TGI (UO-31 renal): 48.9 µM
- TGI (XF 498 CNS): 25.7 µM
